Assay results taken from patent US3965260A, “Anti-inflammatory dipeptide” (McArthur; John N., priority 1975, dated 1976).
Peptide text beside a SMILES is read from it.

Key:
[1] = system: mammalian plasma and tissue peptidases
[2] = in vivo

hydrolysis by mammalian plasma and tissue peptidases [1] | half life [2] | SMILES
resist rapid hydrolysis | ≥ 6 h | N[C@H](Cc1ccccc1)C(=O)N[C@H](Cc1ccccc1)C(=O)O [D-phenylalanyl-D-phenylalanine] (HELM PEPTIDE1{[dF].[dF]}$$$$V2.0)
resist rapid hydrolysis | ≥ 6 h | N[C@H](Cc1ccccc1)C(=O)N[C@H](Cc1c[nH]c2ccccc12)C(=O)O [D-phenylalanyl-D-tryptophan] (HELM PEPTIDE1{[dF].[dW]}$$$$V2.0)
resist rapid hydrolysis | ≥ 6 h | N[C@H](Cc1c[nH]c2ccccc12)C(=O)N[C@H](Cc1c[nH]c2ccccc12)C(=O)O [D-tryptophanyl-D-tryptophan] (HELM PEPTIDE1{[dW].[dW]}$$$$V2.0)
resist rapid hydrolysis | ≥ 6 h | N[C@H](Cc1c[nH]c2ccccc12)C(=O)N[C@H](Cc1ccccc1)C(=O)O [D-tryptophanyl-D-phenylalanine] (HELM PEPTIDE1{[dW].[dF]}$$$$V2.0)
